Results from PMC10761119, “Phosphorylation-state dependent intraneuronal sorting of Aβ differentially impairs autophagy and the endo-lysosomal system” (Autophagy, 2023).

What was measured:
[1] = test system: primary cortical neurons; assay: Lysosome enrichment, immunoisolation of LAMP2- or LC3-positive vesicles and Aβ immunoprecipitation with western immunoblotting; format: cell-based, mouse; settings: Aβ 500 nM, 4 h; for Intraneuronal accumulation of Aβ peptides by immunoprecipitation of total Aβ (rank order): IP from PNS with 4G8; for Aβ levels in the lysosomal/late endosomal enriched fraction (16,000 g pellet): immunoblot, two independent experiments; for Aβ in LAMP2-immunoisolated lysosomes: compared to p-Ser8Aβ
Procedure: Cells after respective washing steps were collected by scraping and homogenized in isotonic buffer (10 mM Tris-HCl, pH 7.4, 1 mM MgCl2, 0.1 mM EGTA, 0.25 M sucrose) containing protease and phosphatase inhibitors, by repeated suspension through a 23 G × 1” needle. Cell homogenate was centrifuged at 2,000 g for 5 min. Pellet (nuclear material) was discarded. The post-nuclear supernatant was centrifuged at 16,100 g for 15 min. Pellet comprised of lysosome enriched material and the supernatant was used as the crude lysosome depleted material. Pellet was resuspended in STEN-lysis buffer and the lysosome enriched fraction was the supernatant collected after centrifugation at 16,100 g for 15 min. Supernatant was further centrifuged at 16,100 g for 60 min. The resultant pellet contained lysosome depleted material and supernatant was crude cytosolic material. The pellet was re-homogenized in STEN-lysis buffer and the supernatant was the lysosome depleted fraction collected post-centrifugation at 16,100 g for 15 min.
Cells after respective washing steps were collected by scraping and homogenized in either isotonic buffer or hypotonic D buffer containing protease and phosphatase inhibitors by repeated suspension through a 23 G × 1” needle. Cell homogenate was centrifuged at 2,000 g for 5 min and the nuclear material (pellet) was discarded. The post-nuclear supernatant was then used for IP experiments. Sepharose G beads (ThermoFisher Scientific, 101242) were incubated with PNS material at RT for 1 h, beads were further pelleted down and boiled in 1% SDS in 50 mM Tris-HCl, pH 7.6 along with sample buffer, used as bead control. Supernatant exposed to beads only were devoid of nonspecific binding substrates and was used further as loading control. New set of beads were precoated with respective primary antibodies for 1 h and then incubated with the PNS solutions overnight at 4°C. Beads were pelleted down and boiled with 1% SDS in 50 mM Tris-HCl along with sample buffer as the IP eluate.
For different cellular fractions prepared as described earlier, the protein content was estimated using the standard Pierce™ BCA protein assay kit (ThermoFisher Scientific, 23225). For direct comparison between the samples, equal amount of protein was loaded. Samples were dissolved in Laemmli buffer and were boiled at 95°C for 5 min. They were loaded on a precast 4–12% NuPage® Bis-Tris gels (Life technologies, NP033–5/6, WG140–2/3). Gels and prestained protein molecular weight markers were purchased from Life technologies. The separated proteins were electro-transferred onto a 0.2-μm nitrocellulose (NT) membrane (Amersham, 1060001) for 1 h 45 min. After blotting, the NT membranes were boiled in PBS for 10 min. Ponceau staining was done to monitor protein loading of samples. The blots were then incubated in 5% skim milk in TBS-T (TBS [50 mM Tris-HCl, pH 7.5, 150 mM NaCl] containing 0.1% Tween 20 [Sigma Aldrich, P1379]) for 1 h at RT. Blots were incubated overnight at 4°C in the primary antibody solution (respective dilutions in TBS-T, Table 1). Blots were washed and incubated with appropriate secondary antibodies conjugated either with HRP or fluorescent dyes for 1 h. Blots were developed either by enhanced chemiluminescence (ECL) or fluorescence imaging. For ECL imaging, blots were incubated with equivalent mixtures of ECL solution A (0.1 M Tris, 0.4 mM coumaric acid, 2.5 mM luminol, pH 8.5) and B (0.1 M Tris, 0.018% H2O2) mixed prior to application on blots. Signals were detected with an ECL imager (Bio-Rad, Germany). For fluorescence detection, blots were imaged on a Li-COR imaging station (Li-COR Biosciences, Germany). Blots were presented as is or with minimal linear contrast enhancement (Figure 5B–D; S1; S3E; S5E, S8E). Quantification of band signals was done using ImageJ – Gel processing module or Image Studio processing software (LiCOR Biosciences, Germany). […]

[2] = test system: SH-SY5Y cells; assay: Autophagic flux with tandem reporter mCherry-GFP-LC3B; format: cell-based, human; settings: Aβ 1 µM, 24 h, n = 8, N = 4; for Mander's overlap coefficient, R, of Aβ with GFP-positive vesicles / Mander's overlap coefficient, R, of Aβ with mCherry-positive vesicles: mean ± S.D.
Procedure: SH-SY5Y cells were transfected with either GFP-LC3-LC3Δ-RFP or mCherry-GFP-LC3B tandem constructs (0.5 μg/well +1 µl transfection reagent − 24 well plate) with Lipofectamine 2000 (Life Technologies, 11668019) in OptiMEM (Life Technologies, 11058021) in DMEM/F-12, FCS^− PS^− media. After 8 h, FCS^− PS^− media was changed to normal culture media, respectively. Transfection efficiency was around 50–60% in all analyzed coverslips.
SH-SY5Y cells seeded on D1, were treated with Aβ variants (1 μM) on D3 in DMEM/F-12 media without serum and antibiotics. Control treatment included treatment with equal volume of 10 mM NaOH solution used for preparing the Aβ stock solutions, in respective cell culture medium. SH-SY5Y cells, after 16 h of transient expression of the reporter constructs, were treated with different Aβ variants, autophagy modulator substrates and respective controls in DMEM/F-12, FCS^− PS^− media for the mentioned time points. After treatment, cells were washed twice with PBS and with 0.025% trypsin-EDTA in PBS to get rid of cell bound Aβ, followed by subsequent washings with PBS again. Cells were either collected by scraping using a cell-scraper or fixed with 4% PFA-PBS for 15 min at RT, for further immunocytochemistry experiments. Collected treatment media was centrifuged at 1000 g for 5 min, pellet discarded and supernatant frozen at −20°C until further usage.
All images were processed and analyzed using Fiji ImageJ software. Mander’s overlap coefficient (Figure 1B–D; Figure 2B–F; Figure 4B–F; Figure 6E; S2B, D; S4B, D; S6D, F) analysis was done using the colocalization processing module of the Fiji ImageJ plugin. Distance from the plaque core (Figure 1B) was measured using the concentric circles plugin module. Fluorescence intensity of the green channel (Figure S3A-B), and the number of neurons positive for Aβ signals (Figure S3-D) were quantified using the processing module of Keyence software. Intensity analysis (Figure S4E-I) was performed by manually selecting the region of interest (ROI) and measuring the intensity of the individual channels in the selected area. RFP/GFP (Figure 6A) and LysoSensor Green/Blue (Figure 7A) ratiometric images were created by using the image calculator module. Intensity of green and red channel for a particular ROI was calculated and ratios of the individual values were computed (Figure 6B and S7A). For computing the number of mCherry^+GFP^± vesicles or per cell (Figure 6D and S7B), cell outline was drawn manually and number of vesicles per cell (nucleus count – DAPI) was calculated. Similarly, the number of perinuclear and peripheral LAMP2-positive lysosomes or percentage of LAMP2 compartments containing Aβ was computed using the concentric circle processing module (Figure 7D). Due to slight variability in transfection efficiency or the number of cells in different experimental set-ups, the readings from each experiment were averaged and normalized to the control cells from that particular set. Average values from each experiment were normalized to the respective controls in the same set. Values from independent experiments were then computed and values are represented as independent data points.

Row | Substance | Intraneuronal accumulation of Aβ peptides by immunoprecipitation of total Aβ (rank order) [1] | Aβ levels in the lysosomal/late endosomal enriched fraction (16,000 g pellet) [1] | Aβ in LC3 immunoisolated vesicles ([1]; western immunoblot 82E1) | Number of mCherry+ GFP+ vesicles per cell ([2]; compared to control and to p-Ser26Aβ treated cells) | Mander's overlap coefficient, R, of Aβ with GFP-positive vesicles [2] | Mander's overlap coefficient, R, of Aβ with mCherry-positive vesicles [2] | Number of mCherry+ GFP− vesicles per cell [2] | Aβ in LAMP2-immunoisolated lysosomes ([1]; western immunoblot 82E1) | Ratio of mCherry:GFP fluorescence intensities ([2]; compared to control cells)
1 | amyloid-β phosphorylated at serine residue 8 [p-Ser8Aβ] | p-Ser8Aβ > p-Ser26Aβ > npAβ | only marginal levels | high levels | significantly higher | 0.56 ± 0.10 | 0.57 ± 0.06 | significantly least | – | –
2 | amyloid-β phosphorylated at serine residue 26 [p-Ser26Aβ] | p-Ser8Aβ > p-Ser26Aβ > npAβ | high levels | – | – | 0.30 ± 0.05 | 0.70 ± 0.05 | significantly higher number | strongly enriched | –
3 | non-phosphorylated amyloid-β [npAβ, reference compound] | p-Ser8Aβ > p-Ser26Aβ > npAβ | moderate levels | – | – | 0.40 ± 0.05 | 0.61 ± 0.04 | – | strongly enriched | not significantly altered
